According to patent publication US12516022B2, “Derivatives of aryl hydrocarbon receptor agonists” (AZORA THERAPEUTICS, INC., priority 2021, dated 2026):

What was measured:
[1] = Stability of indirubin prodrugs in simulated fluids (FaSSIF, FaSSGF), 24 h at 37° C., UPLC-MS; type: physicochemical
Procedure: (§1) 10.41 g fasted state simulated intestinal fluid (FaSSIF) buffer concentrate was dissolved in 240.3 g deionized water and 560 mg FaSSIF powder added. The mixture was stirred until complete dissolution observed. The test compound (approx. 1-3 mg) was placed in 5.00 mL of FaSSIF solution. Samples of the solution with the test compound were taken after 24 hours in at 37° C. (oven-controlled temperature).
as §1, with “36.78” for “10.41”, “gastric” for “intestinal”, “(FaSSGF)” for “(FaSSIF)”, “961.9” for “240.3”, “60” for “560”, “FaSSGF” for “FaSSIF”
UPLC-MS analysis of the samples taken at 24 hours was carried out on a Waters Acquity UPLC system consisting of an Acquity I-Class Sample Manager-FL, Acquity I-Class Binary Solvent Manager and an Acquity UPLC Column Manager. UV detection was afforded using an Acquity UPLC PDA detector (scanning from 210 to 400 nm), whilst mass detection was achieved using an Acquity QDa detector (mass scanning from 100-1250 Da; positive and negative modes simultaneously), and ELS detection was achieved using an Acquity UPLC ELS Detector. A Waters Acquity UPLC BEH C18 column (2.1 Å˜50 mm, […]) was used to separate the analytes. Samples were prepared by dissolution (with or without sonication) into 1 mL of 50% (v/v) MeCN in water. The resulting solutions were then filtered through a […] syringe filter before submitting for analysis. All of the solvents, including formic acid and 36% ammonia solution, were purchased as the HPLC grade.

[2] = Time course of conversion to indirubin in FaSSIF at 37° C.;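 on all read-outs here: test compound, about 1-3 mg in 5 mL FaSSIF, sampled and analysed by UPLC-MS with PDA UV (210-400 nm), QDa mass and evaporative light scattering detection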; type: physicochemical; conditions: for Conversion to indirubin: over a 24 hour period

O=C1/C(=C2/C(=O)N(COS(=O)(=O)O)c3ccccc32)Nc2ccccc21 [drawing 224]
Fraction (percent) of indirubin ([1]; FaSSIF 37° C. 24 h): 100%
Fraction (percent) of starting material (SM) ([1]; FaSSIF 37° C. 24 h): 0%

O=C1/C(=C2/C(=O)N(CSc3ccccc3)c3ccccc32)Nc2ccccc21
Fraction (percent) of indirubin ([1]; FaSSGF 37° C. 24 h): 0%
Fraction (percent) of starting material (SM) ([1]; FaSSGF 37° C. 24 h): 100%
Fraction (percent) of indirubin ([1]; FaSSIF 37° C. 24 h): 0%
Fraction (percent) of starting material (SM) ([1]; FaSSIF 37° C. 24 h): 100%

CN(C)CCNC(=O)N1C(=O)/C(=C2\Nc3ccccc3C2=O)c2ccccc21
Fraction (percent) of indirubin ([1]; FaSSGF 37° C. 24 h): 0%
Fraction (percent) of starting material (SM) ([1]; FaSSGF 37° C. 24 h): 100%
Fraction (percent) of indirubin ([1]; FaSSIF 37° C. 24 h): 0%
Fraction (percent) of starting material (SM) ([1]; FaSSIF 37° C. 24 h): 100%

O=C1/C(=C2/C(=O)N(CS(=O)(=O)c3ccccc3)c3ccccc32)Nc2ccccc21
Fraction (percent) of indirubin ([1]; FaSSGF 37° C. 24 h): 0%
Fraction (percent) of starting material (SM) ([1]; FaSSGF 37° C. 24 h): 100%
Fraction (percent) of indirubin ([1]; FaSSIF 37° C. 24 h): 0%
Fraction (percent) of starting material (SM) ([1]; FaSSIF 37° C. 24 h): 100%

O=C1/C(=C2/C(=O)N(C(=O)N3CCOCC3)c3ccccc32)Nc2ccccc21
Fraction (percent) of indirubin ([1]; FaSSGF 37° C. 24 h): 0%
Fraction (percent) of starting material (SM) ([1]; FaSSGF 37° C. 24 h): 100%
Fraction (percent) of indirubin ([1]; FaSSIF 37° C. 24 h): 0%
Fraction (percent) of starting material (SM) ([1]; FaSSIF 37° C. 24 h): 100%

CCOC(=O)CCC(=O)N1C(=O)/C(=C2\Nc3ccccc3C2=O)c2ccccc21
Fraction (percent) of indirubin ([1]; FaSSGF 37° C. 24 h): 0%
Fraction (percent) of starting material (SM) ([1]; FaSSGF 37° C. 24 h): 100%
Fraction (percent) of indirubin ([1]; FaSSIF 37° C. 24 h): 0%
Fraction (percent) of starting material (SM) ([1]; FaSSIF 37° C. 24 h): 100%

CN(C)CCCCNC(=O)N1C(=O)/C(=C2\Nc3ccccc3C2=O)c2ccccc21
Fraction (percent) of indirubin ([1]; FaSSGF 37° C. 24 h): 0%
Fraction (percent) of starting material (SM) ([1]; FaSSGF 37° C. 24 h): 100%
Fraction (percent) of indirubin ([1]; FaSSIF 37° C. 24 h): 0%
Fraction (percent) of starting material (SM) ([1]; FaSSIF 37° C. 24 h): 100%

COCN1C(=O)/C(=C2\Nc3ccccc3C2=O)c2ccccc21
Fraction (percent) of indirubin ([1]; FaSSGF 37° C. 24 h): 2%
Fraction (percent) of starting material (SM) ([1]; FaSSGF 37° C. 24 h): 100%
Fraction (percent) of indirubin ([1]; FaSSIF 37° C. 24 h): 2%
Fraction (percent) of starting material (SM) ([1]; FaSSIF 37° C. 24 h): 91%

Cl.NCCCNC(=O)N1C(=O)/C(=C2\Nc3ccccc3C2=O)c2ccccc21
Fraction (percent) of indirubin ([1]; FaSSGF 37° C. 24 h): 7%
Fraction (percent) of starting material (SM) ([1]; FaSSGF 37° C. 24 h): 86%
Fraction (percent) of indirubin ([1]; FaSSIF 37° C. 24 h): 0%
Fraction (percent) of starting material (SM) ([1]; FaSSIF 37° C. 24 h): 100%

CC(=O)NCCNC(=O)N1C(=O)/C(=C2\Nc3ccccc3C2=O)c2ccccc21
Fraction (percent) of indirubin ([1]; FaSSGF 37° C. 24 h): 0%
Fraction (percent) of starting material (SM) ([1]; FaSSGF 37° C. 24 h): 100%
Fraction (percent) of indirubin ([1]; FaSSIF 37° C. 24 h): 0%
Fraction (percent) of starting material (SM) ([1]; FaSSIF 37° C. 24 h): 100%

CN(C)CCCNC(=O)N1C(=O)/C(=C2\Nc3ccccc3C2=O)c2ccccc21
Fraction (percent) of indirubin ([1]; FaSSGF 37° C. 24 h): 0%
Fraction (percent) of starting material (SM) ([1]; FaSSGF 37° C. 24 h): 100%
Fraction (percent) of indirubin ([1]; FaSSIF 37° C. 24 h): 1%
Fraction (percent) of starting material (SM) ([1]; FaSSIF 37° C. 24 h): 94%

O=C1/C(=C2/C(=O)N(C(=O)NC3CCOCC3)c3ccccc32)Nc2ccccc21 [drawing 263]
indirubin ([2]; FaSSIF 37° C. 24 h): 6%
indirubin methylene alcohol ([2]; FaSSIF 37° C. 24 h): 0%
starting material (prodrug compound) ([2]; FaSSIF 37° C. 24 h): 55%
indirubin ([2]; FaSSIF 37° C., 15 min): 8%
indirubin methylene alcohol ([2]; FaSSIF 37° C., 15 min): 0%
starting material (prodrug compound) ([2]; FaSSIF 37° C., 15 min): 50%
indirubin ([2]; FaSSIF 37° C., 30 min): 5%
indirubin methylene alcohol ([2]; FaSSIF 37° C., 30 min): 0%
starting material (prodrug compound) ([2]; FaSSIF 37° C., 30 min): 44%
indirubin ([2]; FaSSIF 37° C., 1 h): 5%
indirubin methylene alcohol ([2]; FaSSIF 37° C., 1 h): 0%
starting material (prodrug compound) ([2]; FaSSIF 37° C., 1 h): 33%
indirubin ([2]; FaSSIF 37° C., 2 h): 10%
indirubin methylene alcohol ([2]; FaSSIF 37° C., 2 h): 1%
starting material (prodrug compound) ([2]; FaSSIF 37° C., 2 h): 50%
Conversion to indirubin ([2]; FaSSIF 37° C.): 0-20%

O=C1/C(=C2/C(=O)N(CN3CCC3)c3ccccc32)Nc2ccccc21 [drawing 266]
indirubin ([2]; FaSSIF 37° C. 24 h): 20%
indirubin methylene alcohol ([2]; FaSSIF 37° C. 24 h): 7%
starting material (prodrug compound) ([2]; FaSSIF 37° C. 24 h): 62%
indirubin ([2]; FaSSIF 37° C., 15 min): 9%
indirubin methylene alcohol ([2]; FaSSIF 37° C., 15 min): 5%
starting material (prodrug compound) ([2]; FaSSIF 37° C., 15 min): 72%
indirubin ([2]; FaSSIF 37° C., 30 min): 8%
indirubin methylene alcohol ([2]; FaSSIF 37° C., 30 min): 5%
starting material (prodrug compound) ([2]; FaSSIF 37° C., 30 min): 79%
indirubin ([2]; FaSSIF 37° C., 1 h): 10%
indirubin methylene alcohol ([2]; FaSSIF 37° C., 1 h): 5%
starting material (prodrug compound) ([2]; FaSSIF 37° C., 1 h): 80%
indirubin ([2]; FaSSIF 37° C., 2 h): 13%
indirubin methylene alcohol ([2]; FaSSIF 37° C., 2 h): 4%
starting material (prodrug compound) ([2]; FaSSIF 37° C., 2 h): 75%
Conversion to indirubin ([2]; FaSSIF 37° C.): 0-20%
